Experiment: clinical
Conditions: human, in vivo, po

fraction unbound: 0.04
Compound: Nc1nc2ccc(OC(F)(F)F)cc2s1 [RILUZOLE]

From ChEMBL document CHEMBL3832083
